US10513511B2, “Aqueous suspension formulation comprising 4-(4-(4-(((3R,5R)-5-((1H-1,2,4-triazol-1-yl)methyl)-5-(2,4-difluoro-phenyl)tetrahydrofuran-3-yl)methoxy)-3-methylphenyl) or a pharmaceutically acceptable salt thereof” (PULMOCIDE LIMITED, priority 2015, dated 2019)
≈ marks a conversion by molar mass, not a printed value.

Experiments:
Format in all cases: cell-based
[1] = test system: Aspergillus fumigatus NCPF2010; experiment: Planktonic fungus growth: broth microdilution assay (NCPF2010); conditions: Aspergillus fumigatus, NCPF2010, n = 2-3, read-out: MIC75 Values against Aspergillus fumigatus isolate NCPF2010
Description: (§1) This assay was conducted using a modified method published by EUCAST (Rodriguez-Tudela, et al., 2008). Spores of Aspergillus fumigatus (NCPF2010, NCPF7010 [methionine 220 mutation], NCPF7099 [Glycine G54 mutation]) from Public Health England, Wiltshire; TR34/L98H mutants from St Louis Hospital, Paris, France; TR46/Y121F/T289A mutants from University of Delhi, Delhi, India) were cultured in Sabouraud dextrose agar for 3 days. A stock spore suspension was prepared from a Sabouraud dextrose agar culture by washing with PBS-tween (10 mL; phosphate buffered saline containing 0.05% Tween-20, 100 U/mL penicillin and 100 U/mL streptomycin). The spore count was assessed using a Neubauer haemocytometer and then adjusted to 10^6 spores/mL with PBS. A working suspension of spores (2×10^5 spores/mL) was prepared in filter sterilised, BSA MOPS RPMI-1640 (50 mL; RPMI-1640 containing 2 mM L-glutamine, 0.5% BSA, 2% glucose, 0.165 M MOPS, buffered to pH 7 with NaOH).
(§2) For the assay, BSA MOPS RPMI-1640 (50 μL/well) was added throughout the 384-well plate (Catalogue number 353962, BD Falcon, Oxford, UK) first. Test compounds (0.5 μL DMSO solution) were then added in quadruplicate using an Integra VIAFLO 96 (Integra, Zizers, Switzerland), and mixed well using a plate mixer. Subsequently 50 μL of the working spore suspension prepared above was added to all wells except non-spore control wells. For non-spore control wells, BSA MOPS-RPMI solution (50 μL/well) was added instead. The plate was covered with a plastic lid, and incubated (35° C. with ambient air) for 48 hr. The OD of each well at 530 nm was determined using a multi-scanner (Clariostar: BMG, Buckinghamshire, UK). The percentage inhibition for each well was calculated and the MIC50, MIC75 and MIC90 values were calculated from the concentration-response curve generated for each test compound.

[2] = test system: Aspergillus fumigatus L98H (TR34/L98H); experiment: Planktonic fungus growth: broth microdilution assay (L98H); conditions: Aspergillus fumigatus, read-out: MIC75 Values against Aspergillus fumigatus isolate L98H
Description: as §1, §2

[3] = test system: Aspergillus fumigatus (NCPF2010); experiment: Aspergillus fumigatus infection of BEAS2B bronchial epithelial cells (galactomannan); conditions: NCPF2010, galactomannan in supernatant, 24 hr, n = 1-3, read-out: Infection of BEAS2B cells MIC50
Description: BEAS2B cells were seeded in 96-well plates (100 μL; 3×10^4 cells/well; Catalogue No 3596, Sigma Aldrich, Dorset, UK) in 10% FBS RPMI-1640 and were then incubated (37° C., 5% CO2) for one day before experimentation. Test compounds (0.5 μL DMSO solution) or vehicle (DMSO) were added to each well to give a final DMSO concentration of 0.5%. BEAS2B cells were incubated with test compounds for 1 hr (35° C., 5% CO2) before infection with Aspergillus fumigatus (20 uL; Public Health England) conidia suspension (0.5×10^5/mL in 10% FBS RPMI-1640). The plate was incubated for 24 hr (35° C., 5% CO2). Supernatant (50 uL) was collected and transferred to a PCR plate (Catalogue No L1402-9700, Starlab, Milton Keynes, UK), which was frozen (−20° C.) until use. After thawing, supernatant (5 μL) was diluted 1:20 by adding R7-PBS solution (95 μL; 1:4 R7 to PBS; Bio-Rad Laboratories, Redmond, Wash., USA). Galactomannan levels in these samples (50 μL) were measured using Platelia GM-EIA kits (Bio-Rad Laboratories, Redmond, Wash., USA). The percentage inhibition for each well was calculated and the IC50 value was calculated from the concentration-response curve generated for each test compound.

[4] = test system: Aspergillus flavus ATCC204304; experiment: Fungus panel screening, CLSI broth microdilution; conditions: for MIC50: 50% inhibition by visual inspection (CLSI); for MIC: 100% inhibition by visual inspection (CLSI), read-out: MIC100
Description: (§3) Fungus panel screening was conducted by Eurofins Panlabs Inc. The MIC and MIC50 values of the test articles were determined following the guidelines of the CLSI: broth microdilution methods for yeast (CLSI M27-A2), (CLSI, 2002) and for filamentous fungi (CLSI M38-A), (CLSI, 2008).

[5] = test system: Aureobasidium pullulans ATCC9348; experiment: Fungus panel screening, CLSI broth microdilution; conditions: for MIC50: 50% inhibition by visual inspection (CLSI); for MIC: 100% inhibition by visual inspection (CLSI), read-out: MIC100
Description: as §3

[6] = test system: Candida albicans 20183.073; experiment: Fungus panel screening, CLSI broth microdilution; conditions: for MIC50: 50% inhibition by visual inspection (CLSI); for MIC: 100% inhibition by visual inspection (CLSI), read-out: MIC100
Description: as §3

[7] = test system: Candida albicans 20240.047; experiment: Fungus panel screening, CLSI broth microdilution; conditions: for MIC50: 50% inhibition by visual inspection (CLSI); for MIC: 100% inhibition by visual inspection (CLSI), read-out: MIC100
Description: as §3

[8] = test system: Candida albicans ATCC10231; experiment: Fungus panel screening, CLSI broth microdilution; conditions: for MIC50: 50% inhibition by visual inspection (CLSI); for MIC: 100% inhibition by visual inspection (CLSI), read-out: MIC100
Description: as §3

Candida glabrata 20197.1 = experiment: Fungus panel screening, CLSI broth microdilution; conditions: Nakaseomyces glabratus; for MIC50: 50% inhibition by visual inspection (CLSI); for MIC: 100% inhibition by visual inspection (CLSI), read-out: MIC100
Description: as §3

[9] = test system: Candida glabrata AT0036583; experiment: Fungus panel screening, CLSI broth microdilution; conditions: Nakaseomyces glabratus; for MIC50: 50% inhibition by visual inspection (CLSI); for MIC: 100% inhibition by visual inspection (CLSI), read-out: MIC100
Description: as §3

Candida krusei ATCC6258 = experiment: Fungus panel screening, CLSI broth microdilution; conditions: Pichia kudriavzevii; for MIC50: 50% inhibition by visual inspection (CLSI); for MIC: 100% inhibition by visual inspection (CLSI), read-out: MIC100
Description: as §3

[10] = test system: Chaectomium globosum ATCC44699; experiment: Fungus panel screening, CLSI broth microdilution; conditions: for MIC50: 50% inhibition by visual inspection (CLSI); for MIC: 100% inhibition by visual inspection (CLSI), read-out: MIC100
Description: as §3

[11] = test system: Cryptococcus neoformans ATCC24067; experiment: Fungus panel screening, CLSI broth microdilution; conditions: for MIC50: 50% inhibition by visual inspection (CLSI); for MIC: 100% inhibition by visual inspection (CLSI), read-out: MIC100
Description: as §3

[12] = test system: Fusarium graminerarum ATCC16106; experiment: Fungus panel screening, CLSI broth microdilution; conditions: for MIC50: 50% inhibition by visual inspection (CLSI); for MIC: 100% inhibition by visual inspection (CLSI), read-out: MIC100
Description: as §3

[13] = test system: Penicillium chrysogenum ATCC9480; experiment: Fungus panel screening, CLSI broth microdilution; conditions: for MIC50: 50% inhibition by visual inspection (CLSI); for MIC: 100% inhibition by visual inspection (CLSI), read-out: MIC100
Description: as §3

[14] = test system: Rhizopus oryzae ATCC11145; experiment: Fungus panel screening, CLSI broth microdilution; conditions: Rhizopus arrhizus; for MIC50: 50% inhibition by visual inspection (CLSI); for MIC: 100% inhibition by visual inspection (CLSI), read-out: MIC100
Description: as §3

[15] = test system: Trichophyton rubrum ATCC10218; experiment: Fungus panel screening, CLSI broth microdilution; conditions: for MIC50: 50% inhibition by visual inspection (CLSI); for MIC: 100% inhibition by visual inspection (CLSI), read-out: MIC100
Description: as §3

Row | SMILES | MIC [1] [µM] | MIC [2] [µM] | MIC50 [3] [µM] | MIC50 [4] [µg/mL] | MIC [4] [µg/mL] | MIC50 [5] [µg/mL] | MIC [5] [µg/mL] | MIC50 [6] [µg/mL] | MIC [6] [µg/mL] | MIC50 [7] [µg/mL] | MIC [7] [µg/mL] | MIC50 [8] [µg/mL] | MIC [8] [µg/mL] | MIC50 (Candida glabrata 20197.1) [µg/mL] | MIC (Candida glabrata 20197.1) [µg/mL] | MIC50 [9] [µg/mL] | MIC [9] [µg/mL] | MIC50 (Candida krusei ATCC6258) [µg/mL] | MIC (Candida krusei ATCC6258) [µg/mL] | MIC50 [10] [µg/mL] | also measured
1 | C[C@@H](c1ncncc1F)[C@](O)(Cn1cncn1)c1ccc(F)cc1F [Voriconazole] | 0.511 (≈ 179 ng/mL) | 2.58 (≈ 903 ng/mL) | 0.154 (≈ 53.8 ng/mL) | 1 (≈ 2.86 µM) | 2 (≈ 5.73 µM) | > 8 | > 8 | 4 (≈ 11.5 µM) | > 8 | 0.031 (≈ 0.0887 µM) | > 8 | 0.25 (≈ 0.716 µM) | > 8 | 0.031 (≈ 0.0887 µM) | > 8 | 0.25 (≈ 0.716 µM) | > 8 | 0.25 (≈ 0.716 µM) | 1 (≈ 2.86 µM) | 0.5 (≈ 1.43 µM) | MIC [10]: 1 µg/mL (≈ 2.86 µM); MIC50 [11]: 0.016 µg/mL (≈ 0.0458 µM); MIC [11]: 1 µg/mL (≈ 2.86 µM); MIC50 [12]: > 8 µg/mL; MIC [12]: > 8 µg/mL; MIC50 [13]: 1 µg/mL (≈ 2.86 µM); MIC [13]: 2 µg/mL (≈ 5.73 µM); MIC50 [14]: 8 µg/mL (≈ 22.9 µM); MIC [14]: > 8 µg/mL; MIC50 [15]: < 0.008 µg/mL; MIC [15]: 0.063 µg/mL (≈ 0.18 µM)
2 | Cc1cc(N2CCN(c3ccc(C(=O)N[C@H]4CCCC[C@@H]4O)cc3)CC2)ccc1OC[C@@H]1CO[C@@](Cn2cncn2)(c2ccc(F)cc2F)C1 [Compound (Ia), 4-(4-(4-(((3R,5R)-5-((1H-1,2,4-triazol-1-yl)methyl)-5-(2,4-difluorophenyl)tetrahydrofuran-3-yl)methoxy)-3-methylphenyl)piperazin-1-yl)-N-((1S,2S)-2-hydroxycyclohexyl) benzamide] | 0.00281 (≈ 1.93 ng/mL) | 0.0127 (≈ 8.72 ng/mL) | 0.00635 (≈ 4.36 ng/mL) | 0.13 (≈ 0.189 µM) | 0.13 (≈ 0.189 µM) | 0.25 (≈ 0.364 µM) | 1 (≈ 1.46 µM) | 0.125 (≈ 0.182 µM) | > 2 | 0.016 (≈ 0.0233 µM) | > 2 | 0.25 (≈ 0.364 µM) | > 2 | 0.0078 (≈ 0.0114 µM) | > 2 | 0.25 (≈ 0.364 µM) | > 2 | 0.25 (≈ 0.364 µM) | 0.25 (≈ 0.364 µM) | 0.031 (≈ 0.0451 µM) | MIC [10]: 0.13 µg/mL (≈ 0.189 µM); MIC50 [11]: 0.016 µg/mL (≈ 0.0233 µM); MIC [11]: 0.063 µg/mL (≈ 0.0917 µM); MIC50 [12]: 0.13 µg/mL (≈ 0.189 µM); MIC [12]: 0.5 µg/mL (≈ 0.728 µM); MIC50 [13]: 0.063 µg/mL (≈ 0.0917 µM); MIC [13]: 0.13 µg/mL (≈ 0.189 µM); MIC50 [14]: 0.25 µg/mL (≈ 0.364 µM); MIC [14]: 0.5 µg/mL (≈ 0.728 µM); MIC [15]: 0.031 µg/mL (≈ 0.0451 µM)
3 | CC[C@@H]([C@H](C)O)n1ncn(-c2ccc(N3CCN(c4ccc(OC[C@@H]5CO[C@@](Cn6cncn6)(c6ccc(F)cc6F)C5)cc4)CC3)cc2)c1=O [Posaconazole, reference compound] | 0.0109 (≈ 7.64 ng/mL) | 0.0983 (≈ 68.9 ng/mL) | 0.0116 (≈ 8.13 ng/mL) | 0.063 (≈ 0.0899 µM) | 0.13 (≈ 0.186 µM) | 0.25 (≈ 0.357 µM) | 1 (≈ 1.43 µM) | 0.25 (≈ 0.357 µM) | > 8 | 0.031 (≈ 0.0442 µM) | > 8 | 0.13 (≈ 0.186 µM) | > 8 | 0.031 (≈ 0.0442 µM) | > 8 | 0.5 (≈ 0.713 µM) | > 8 | 0.13 (≈ 0.186 µM) | 0.25 (≈ 0.357 µM) | 0.13 (≈ 0.186 µM) | MIC [10]: 0.25 µg/mL (≈ 0.357 µM); MIC50 [11]: 0.016 µg/mL (≈ 0.0228 µM); MIC [11]: 0.25 µg/mL (≈ 0.357 µM); MIC50 [12]: > 8 µg/mL; MIC [12]: > 8 µg/mL; MIC50 [13]: 0.063 µg/mL (≈ 0.0899 µM); MIC [13]: 0.13 µg/mL (≈ 0.186 µM); MIC50 [14]: 0.13 µg/mL (≈ 0.186 µM); MIC [14]: > 8 µg/mL; MIC50 [15]: < 0.008 µg/mL; MIC [15]: 0.031 µg/mL (≈ 0.0442 µM)
